Reference: paper PMC10893103, “Cyclodextrin-Enabled Enantioselective Complexation Study of Cathinone Analogs” (Molecules, 2024)

Test: Affinity capillary electrophoresis (ACE), pH 7.4
Conditions: 30 mM phosphate buffer pH 7.4, 25 °C, 15 kV
Source text: To assess the CD complex formation capability of the five cathinone derivatives, we devised a screening ACE method tailored to closely mimic physiological conditions. In a preliminary study, the ACE conditions were optimized regarding the type, pH, and concentration of the background electrolyte, the applied voltage, and the injection parameters. […] In order to avoid high Joule heat generation, sufficiently low voltage should be used; thus, after registering the Ohm plot (I-U plot), it was set to 15 kV. Throughout our ACE measurements, corrections for viscosity and ionic strength were systematically implemented to ensure precise determination of complex stability constants.
The CE experiments were performed on a HP ^3DCE and on an Agilent 7100 instrument (Agilent Technologies, Waldbronn, Germany) equipped with a photodiode array detector and the Chemstation software for data handling. Untreated fused silica capillaries (50 µm id, 48.5 cm total, 40 cm effective length) were purchased from Agilent. Conditioning of new capillary was conducted by flushing with 1 M NaOH followed by 0.1 M NaOH and water for 30 min each. Prior to all runs, the capillary was preconditioned by rinsing with BGE (2 min). The temperature of the capillary was set to 25 °C. UV detection was performed at 215 nm, and 15–25 kV voltage was applied. Samples were injected hydrodynamically (150 mbar·sec, optimized in the 50–500 mbar·sec range). The CE-pH measurements were carried out applying 25 kV voltage and 200 mbar·sec injection.
The background electrolyte of the CE-pH measurements contained 25 mM Na2HPO4 and 25 mM Na2B4O7, and the appropriate pH was adjusted with hydrochloric acid. During the ACE measurements, 30 mM phosphate buffer pH 7.4 (30 mM Na2HPO4—NaOH) was used. The running buffer was 20 mM acetic acid adjusting with 1 M Tris the pH to 4.5 during the chiral screening experiments. The BGEs contained CDs at various concentrations (0.25–20 mM) in the ACE experiments and 1-5-10 mM in the chiral method optimization experiments.
Stock solutions of each cathinone analog (mephedrone, flephedrone, 4-MEC, butylone, and MDPV) were prepared separately in methanol (1 mg/ml), and appropriate dilutions with water were used to prepare sample solutions for the CE-pH titration and for the ACE studies applying DMSO as EOF marker, while their mixture was used during the chiral separation studies.
The simplest way to determine the mobility is from the migration times (tmax) read from the electropherograms from which the apparent mobility could be calculated, but more accurate mobility values could be obtained by the determination with the Haarhoff–van der Linde (HVL) function based on Equation (2). (2) HVLδ(t;a0,a1,a2,a3δ)=a0/a2a3δ2πexp[−1/2(t−a1/a2)^2]/1/exp(a3δ)−1+1/2[1+erf(t−a1/2a2)] where a0 is the area of the HVL function, a1 is the position of the Gaussian component, a2 is the standard deviation of the Gaussian component, and a3δ is the peak shape distortion. The application of the HVL function is necessary in the case of accurate ACE measurements because, in several cases, the peaks are distorted due to the complex formation, which makes reading the migration times and calculating the mobility more difficult and imprecise.
The most popular technique for quantifying the analyte–ligand interaction with CE is mobility shift ACE.

| Molecule | 4-MEC–CD complex stability constant, Kstab2 (second migrating enantiomer) [M⁻¹] | 4-MEC–CD complex stability constant, Kstab/Kstab1 (unresolved or first migrating enantiomer) [M⁻¹] | Butylone–CD complex stability constant, Kstab2 (second migrating enantiomer) | Butylone–CD complex stability constant, Kstab/Kstab1 (unresolved or first migrating enantiomer) | Flephedrone–CD complex stability constant, Kstab2 (second migrating enantiomer) [M⁻¹] | Flephedrone–CD complex stability constant, Kstab/Kstab1 (unresolved or first migrating enantiomer) [M⁻¹] | MDPV–CD complex stability constant, Kstab2 (second migrating enantiomer) | MDPV–CD complex stability constant, Kstab/Kstab1 (unresolved or first migrating enantiomer) | Mephedrone–CD complex stability constant, Kstab2 (second migrating enantiomer) [M⁻¹] | Mephedrone–CD complex stability constant, Kstab/Kstab1 (unresolved or first migrating enantiomer) [M⁻¹] |
| --- | --- | --- | --- | --- | --- | --- | --- | --- | --- | --- |
| carboxymethylated-α-CD [CM-α-CD] | 150 ± 15 | 150 ± 15 | 90 ± 12 M⁻¹ | 110 ± 12 M⁻¹ | 90 ± 15 | 75 ± 9 | 340 ± 20 M⁻¹ | 240 ± 20 M⁻¹ | 110 ± 20 | 90 ± 20 |
| succinyl-β-CD [Succ-β-CD (DS~4)] | – | – | 30,500 ± 5300 M^−1 | 13,500 ± 1350 M^−1 | – | – | 10,600 ± 35 M^−1 | 12,100 ± 2150 M^−1 | – | – |
| sulfo(2-hydroxy)propylated-γ-CD [SHP-γ-CD] | 25 ± 5 | 30 ± 7 | 70 ± 7 M⁻¹ | 30 ± 5 M⁻¹ | – | 45 ± 80 | – | – | < 10 | 15 ± 5 |
| sulfobutyl-ether-α-CD [SBE-α-CD] | 610 ± 55 | 450 ± 45 | 530 ± 100 M⁻¹ | 220 ± 20 M⁻¹ | – | – | 550 ± 90 M⁻¹ | 580 ± 80 M⁻¹ | 565 ± 80 | 430 ± 70 |
| CO[C@@H]1[C@@H](OC)[C@H]2O[C@H]3[C@H](OC)[C@@H](OC)[C@@H](O[C@H]4[C@H](OC)[C@@H](OC)[C@@H](O[C@H]5[C@H](OC)[C@@H](OC)[C@@H](O[C@H]6[C@H](OC)[C@@H](OC)[C@@H](O[C@H]7[C@H](OC)[C@@H](OC)[C@@H](O[C@@H]1[C@@H](COS(=O)(=O)O)O2)O[C@@H]7COS(=O)(=O)O)O[C@@H]6COS(=O)(=O)O)O[C@@H]5COS(=O)(=O)O)O[C@@H]4COS(=O)(=O)O)O[C@@H]3COS(=O)(=O)O [HxDMS-α-CD, hexakis-(2,3-O-dimethyl, 6-O-sulfo)-α-CD] | – | 55 ± 15 | – | 550 ± 95 M⁻¹ | – | 105 ± 12 | – | 220 ± 30 M⁻¹ | – | 270 ± 110 |
| dimethylated-β-CD [DIME-β-CD] | 270 ± 25 | 210 ± 20 | – | – | – | 60 ± 6 | – | – | – | 150 ± 15 |
| sulfobutyl-ether-γ-CD [SBE-γ-CD] | – | < 10 | 100 ± 15 M⁻¹ | 95 ± 15 M⁻¹ | – | 100 ± 5 | – | 160 ± 20 M⁻¹ | 65 ± 12 | 70 ± 15 |
| sulfobutyl-ether-β-CD [SBE-β-CD (DS~6.5)] | 660 ± 35 | 560 ± 35 | – | – | 200 ± 12 | 200 ± 20 | – | – | 500 ± 40 | 500 ± 20 |
| O=C(O)CCSC[C@H]1O[C@@H]2O[C@H]3[C@H](O)[C@@H](O)[C@@H](O[C@H]4[C@H](O)[C@@H](O)[C@@H](O[C@H]5[C@H](O)[C@@H](O)[C@@H](O[C@H]6[C@H](O)[C@@H](O)[C@@H](O[C@H]7[C@H](O)[C@@H](O)[C@@H](O[C@H]8[C@H](O)[C@@H](O)[C@@H](O[C@H]1[C@H](O)[C@H]2O)O[C@@H]8CSCCC(=O)O)O[C@@H]7CSCCC(=O)O)O[C@@H]6CSCCC(=O)O)O[C@@H]5CSCCC(=O)O)O[C@@H]4CSCCC(=O)O)O[C@@H]3CSCCC(=O)O [SBX, heptakis-(6-deoxy-6-(2-carboxyethyl)thio)-β-CD] | – | – | – | – | 610 ± 45 | 575 ± 35 | 12,830 ± 900 M^−1 | – | – | – |
| OC[C@H]1O[C@@H]2O[C@H]3[C@H](O)[C@@H](O)[C@@H](O[C@H]4[C@H](O)[C@@H](O)[C@@H](O[C@H]5[C@H](O)[C@@H](O)[C@@H](O[C@H]6[C@H](O)[C@@H](O)[C@@H](O[C@H]7[C@H](O)[C@@H](O)[C@@H](O[C@H]8[C@H](O)[C@@H](O)[C@@H](O[C@H]1[C@H](O)[C@H]2O)O[C@@H]8CO)O[C@@H]7CO)O[C@@H]6CO)O[C@@H]5CN1CCCCC1)O[C@@H]4CO)O[C@@H]3CO [PIP-β-CD, 6-monodeoxy-6-piperidine-β-CD] | – | < 10 | – | < 10 M⁻¹ | – | < 10 | – | < 10 M⁻¹ | – | < 10 |
| O=C(O)CCSC[C@H]1O[C@@H]2O[C@H]3[C@H](O)[C@@H](O)[C@@H](O[C@H]4[C@H](O)[C@@H](O)[C@@H](O[C@H]5[C@H](O)[C@@H](O)[C@@H](O[C@H]6[C@H](O)[C@@H](O)[C@@H](O[C@H]7[C@H](O)[C@@H](O)[C@@H](O[C@H]1[C@H](O)[C@H]2O)O[C@@H]7CSCCC(=O)O)O[C@@H]6CSCCC(=O)O)O[C@@H]5CSCCC(=O)O)O[C@@H]4CSCCC(=O)O)O[C@@H]3CSCCC(=O)O [SAX, hexakis-(6-deoxy-6-(2-carboxyethyl)thio)-α-CD] | – | – | – | – | – | – | – | – | – | 530 ± 45 |
